Tests used:
[1] = tested on: chickweed; test: Test Example 4: herbicidal effect by soil treatment (Table 19, symbol P); type: in vivo, common chickweed (Stellaria media); settings: amount of applied herbicide 320 g/ha
Outline: (§1)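 In this soil treatment, the formulated compound reached the seeds only through the soil: seeds were buried about 1.5 cm deep in sterilized diluvial soil, then the diluted emulsion was sprayed over the surface. After three weeks at 25° C. to 30° C. in a greenhouse, effects were graded on criteria from an earlier test.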

[2] = tested on: wild oat; test: Test Example 5: herbicidal effect by foliage application, plastic box (Table 20, symbol I); type: in vivo, wild oat (Avena fatua); settings: foliage application, 320 g/ha, evaluated three weeks after application
Outline: (§2)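 Plants were sown into sterilized diluvial soil under about 1.5 cm cover and kept in a greenhouse at 25° C. to 30° C. Fourteen days on, foliage received an even spray of the diluted emulsion. Herbicidal or crop effect was judged three weeks afterwards.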

[3] = tested on: barnyard grass; test: Test Example 3: herbicidal effect by foliage application, Wagner pot (Table 18, symbol H); type: in vivo, barnyard grass (Echinochloa crus-galli); settings: amount of applied herbicide 320 g/ha
Outline: (§3)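 Plants were sown in alluvial soil held under 0.1–0.5 cm standing water and grown 14 days in a greenhouse at 25–30 °C. An emulsifiable formulation, water-diluted to the set dose, was then sprayed onto the foliage, and effects were scored three weeks later using previously defined criteria.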

[4] = tested on: wild oat; test: Test Example 4: herbicidal effect by soil treatment (Table 19, symbol I); type: in vivo, wild oat (Avena fatua); settings: amount of applied herbicide 320 g/ha
Outline: as §1

[5] = tested on: persian speedwell; test: Test Example 5: herbicidal effect by foliage application, plastic box (Table 20, symbol R); type: in vivo, Persian speedwell (Veronica persica); settings: foliage application, 320 g/ha, evaluated three weeks after application
Outline: as §2

[6] = tested on: Chinese sprangletop; test: Test Example 3: herbicidal effect by foliage application, Wagner pot (Table 18, symbol D); type: in vivo, chinese sprangletop (Leptochloa chinensis); settings: amount of applied herbicide 320 g/ha
Outline: as §3

[7] = tested on: green foxtail; test: Test Example 4: herbicidal effect by soil treatment (Table 19, symbol G); type: in vivo, green foxtail (Setaria viridis); settings: amount of applied herbicide 320 g/ha
Outline: as §1

[8] = tested on: blackgrass; test: Test Example 4: herbicidal effect by soil treatment (Table 19, symbol J); type: in vivo, blackgrass (Alopecurus myosuroides); settings: amount of applied herbicide 320 g/ha
Outline: as §1

[9] = tested on: Japanese bulrush; test: Test Example 1: herbicidal activity, application before weed generation under submerged conditions (Table 16, symbol B); type: in vivo, Japanese bulrush (Schoenoplectus juncoides); settings: 320 g/ha applied herbicide
Outline: (§4)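 Emulsion formulation, water-diluted to set dose, was put onto the flooded surface (4 cm depth, alluvial soil) the same day weeds were sown and 2.5-leaf rice transplanted. After 3 weeks at 25-30 °C under glass, each species was rated 0 (≤5% kill) to 5 (≥90% kill).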

[10] = tested on: oval-leafed pondweed; test: Test Example 1: herbicidal activity, application before weed generation under submerged conditions (Table 16, symbol C); type: in vivo, oval-leafed pondweed (Monochoria vaginalis); settings: 320 g/ha applied herbicide
Outline: as §4

[11] = tested on: windgrass; test: Test Example 5: herbicidal effect by foliage application, plastic box (Table 20, symbol L); type: in vivo, windgrass (Apera spica-venti); settings: foliage application, 320 g/ha, evaluated three weeks after application
Outline: as §2

[12] = tested on: Italian ryegrass; test: Test Example 5: herbicidal effect by foliage application, plastic box (Table 20, symbol K); type: in vivo, Italian ryegrass (Lolium multiflorum); settings: foliage application, 320 g/ha, evaluated three weeks after application
Outline: as §2

[13] = tested on: persian speedwell; test: Test Example 4: herbicidal effect by soil treatment (Table 19, symbol R); type: in vivo, Persian speedwell (Veronica persica); settings: amount of applied herbicide 320 g/ha
Outline: as §1

[14] = tested on: barnyard grass; test: Test Example 4: herbicidal effect by soil treatment (Table 19, symbol H); type: in vivo, barnyard grass (Echinochloa crus-galli); settings: amount of applied herbicide 320 g/ha
Outline: as §1

[15] = tested on: chickweed; test: Test Example 5: herbicidal effect by foliage application, plastic box (Table 20, symbol P); type: in vivo, common chickweed (Stellaria media); settings: foliage application, 320 g/ha, evaluated three weeks after application
Outline: as §2

[16] = tested on: green foxtail; test: Test Example 5: herbicidal effect by foliage application, plastic box (Table 20, symbol G); type: in vivo, green foxtail (Setaria viridis); settings: foliage application, 320 g/ha, evaluated three weeks after application
Outline: as §2

[17] = tested on: southern crabgrass; test: Test Example 5: herbicidal effect by foliage application, plastic box (Table 20, symbol F); type: in vivo, southern crabgrass (Digitaria ciliaris); settings: foliage application, 320 g/ha, evaluated three weeks after application
Outline: as §2

[18] = tested on: blackgrass; test: Test Example 5: herbicidal effect by foliage application, plastic box (Table 20, symbol J); type: in vivo, blackgrass (Alopecurus myosuroides); settings: foliage application, 320 g/ha, evaluated three weeks after application
Outline: as §2

[19] = tested on: Italian ryegrass; test: Test Example 4: herbicidal effect by soil treatment (Table 19, symbol K); type: in vivo, Italian ryegrass (Lolium multiflorum); settings: amount of applied herbicide 320 g/ha
Outline: as §1

[20] = tested on: southern crabgrass; test: Test Example 4: herbicidal effect by soil treatment (Table 19, symbol F); type: in vivo, southern crabgrass (Digitaria ciliaris); settings: amount of applied herbicide 320 g/ha
Outline: as §1

[21] = tested on: velvetleaf; test: Test Example 4: herbicidal effect by soil treatment (Table 19, symbol M); type: in vivo, velvetleaf (Abutilon theophrasti); settings: amount of applied herbicide 320 g/ha
Outline: as §1

[22] = tested on: lambsquarters; test: Test Example 4: herbicidal effect by soil treatment (Table 19, symbol O); type: in vivo, lambsquarters (Chenopodium album); settings: amount of applied herbicide 320 g/ha
Outline: as §1

[23] = tested on: windgrass; test: Test Example 4: herbicidal effect by soil treatment (Table 19, symbol L); type: in vivo, windgrass (Apera spica-venti); settings: amount of applied herbicide 320 g/ha
Outline: as §1

[24] = tested on: redroot pigweed; test: Test Example 4: herbicidal effect by soil treatment (Table 19, symbol N); type: in vivo, redroot pigweed (Amaranthus retroflexus); settings: amount of applied herbicide 320 g/ha
Outline: as §1

[25] = tested on: rice flat sedge; test: Test Example 3: herbicidal effect by foliage application, Wagner pot (Table 18, symbol E); type: in vivo, rice flat sedge (Cyperus iria); settings: amount of applied herbicide 320 g/ha
Outline: as §3

[26] = tested on: barnyard grass; test: Test Example 5: herbicidal effect by foliage application, plastic box (Table 20, symbol H); type: in vivo, barnyard grass (Echinochloa crus-galli); settings: foliage application, 320 g/ha, evaluated three weeks after application
Outline: as §2

[27] = tested on: lambsquarters; test: Test Example 5: herbicidal effect by foliage application, plastic box (Table 20, symbol O); type: in vivo, lambsquarters (Chenopodium album); settings: foliage application, 320 g/ha, evaluated three weeks after application
Outline: as §2

[28] = tested on: late watergrass; test: Test Example 1: herbicidal activity, application before weed generation under submerged conditions (Table 16, symbol A); type: in vivo, late watergrass (Echinochloa oryzicola); settings: 320 g/ha applied herbicide
Outline: as §4

[29] = tested on: velvetleaf; test: Test Example 5: herbicidal effect by foliage application, plastic box (Table 20, symbol M); type: in vivo, velvetleaf (Abutilon theophrasti); settings: foliage application, 320 g/ha, evaluated three weeks after application
Outline: as §2

[30] = tested on: redroot pigweed; test: Test Example 5: herbicidal effect by foliage application, plastic box (Table 20, symbol N); type: in vivo, redroot pigweed (Amaranthus retroflexus); settings: foliage application, 320 g/ha, evaluated three weeks after application
Outline: as §2

CCCC(=O)Oc1c(C)nn(C)c(=O)c1-c1c(-c2ccccc2F)sc2ccc(F)cc12 [2-200]
P: chickweed, herbicidal effect rating [1]: 1 (Herbicidal rate of 5% or more and less than 20%) | herbicidal effect on I: wild oat (criteria 0-5) [2]: 0 (Herbicidal rate of 5% or less (almost no effect)) | herbicidal effect on H: barnyard grass [3]: 4 (Herbicidal rate of 70% or more and less than 90%) | I: wild oat, herbicidal effect rating [4]: 0 (Herbicidal rate of 5% or less (almost no effect)) | herbicidal effect on R: persian speedwell (criteria 0-5) [5]: 4 (Herbicidal rate of 70% or more and less than 90%) | herbicidal effect on D: Chinese sprangletop [6]: 5 (Herbicidal rate of 90% or more (almost completely withered)) | G: green foxtail, herbicidal effect rating [7]: 1 (Herbicidal rate of 5% or more and less than 20%) | J: blackgrass, herbicidal effect rating [8]: 0 (Herbicidal rate of 5% or less (almost no effect)) | Herbicidal effect on B: Japanese bulrush (grade 0-5) [9]: 0 (Herbicidal rate of 5% or less (almost no effect)) | Herbicidal effect on C: oval-leafed pondweed (grade 0-5) [10]: 0 (Herbicidal rate of 5% or less (almost no effect)) | herbicidal effect on L: windgrass (criteria 0-5) [11]: 3 (Herbicidal rate of 40% or more and less than 70%) | herbicidal effect on K: Italian ryegrass (criteria 0-5) [12]: 4 (Herbicidal rate of 70% or more and less than 90%) | R: persian speedwell, herbicidal effect rating [13]: 3 (Herbicidal rate of 40% or more and less than 70%) | H: barnyard grass, herbicidal effect rating [14]: 3 (Herbicidal rate of 40% or more and less than 70%) | herbicidal effect on P: chickweed (criteria 0-5) [15]: 5 (Herbicidal rate of 90% or more (almost completely withered)) | herbicidal effect on G: green foxtail (criteria 0-5) [16]: 4 (Herbicidal rate of 70% or more and less than 90%) | herbicidal effect on F: southern crabgrass (criteria 0-5) [17]: 2 (Herbicidal rate of 20% or more and less than 40%) | herbicidal effect on J: blackgrass (criteria 0-5) [18]: 1 (Herbicidal rate of 5% or more and less than 20%) | K: Italian ryegrass, herbicidal effect rating [19]: 3 (Herbicidal rate of 40% or more and less than 70%) | F: southern crabgrass, herbicidal effect rating [20]: 1 (Herbicidal rate of 5% or more and less than 20%) | M: velvetleaf, herbicidal effect rating [21]: 0 (Herbicidal rate of 5% or less (almost no effect)) | O: lambsquarters, herbicidal effect rating [22]: 4 (Herbicidal rate of 70% or more and less than 90%) | L: windgrass, herbicidal effect rating [23]: 0 (Herbicidal rate of 5% or less (almost no effect)) | N: redroot pigweed, herbicidal effect rating [24]: 4 (Herbicidal rate of 70% or more and less than 90%) | herbicidal effect on E: rice flat sedge [25]: 5 (Herbicidal rate of 90% or more (almost completely withered)) | herbicidal effect on H: barnyard grass (criteria 0-5) [26]: 3 (Herbicidal rate of 40% or more and less than 70%) | herbicidal effect on O: lambsquarters (criteria 0-5) [27]: 3 (Herbicidal rate of 40% or more and less than 70%) | Herbicidal effect on A: late watergrass (grade 0-5) [28]: 3 (Herbicidal rate of 40% or more and less than 70%) | herbicidal effect on M: velvetleaf (criteria 0-5) [29]: 5 (Herbicidal rate of 90% or more (almost completely withered)) | herbicidal effect on N: redroot pigweed (criteria 0-5) [30]: 5 (Herbicidal rate of 90% or more (almost completely withered))

CCCC(=O)Oc1c(C)nn(C)c(=O)c1-c1c(-c2cccc(OC)c2)sc2ccc(F)cc12 [2-210]
P: chickweed, herbicidal effect rating [1]: 4 (Herbicidal rate of 70% or more and less than 90%) | herbicidal effect on I: wild oat (criteria 0-5) [2]: 0 (Herbicidal rate of 5% or less (almost no effect)) | herbicidal effect on H: barnyard grass [3]: 5 (Herbicidal rate of 90% or more (almost completely withered)) | I: wild oat, herbicidal effect rating [4]: 0 (Herbicidal rate of 5% or less (almost no effect)) | herbicidal effect on R: persian speedwell (criteria 0-5) [5]: 5 (Herbicidal rate of 90% or more (almost completely withered)) | herbicidal effect on D: Chinese sprangletop [6]: 5 (Herbicidal rate of 90% or more (almost completely withered)) | G: green foxtail, herbicidal effect rating [7]: 4 (Herbicidal rate of 70% or more and less than 90%) | J: blackgrass, herbicidal effect rating [8]: 1 (Herbicidal rate of 5% or more and less than 20%) | Herbicidal effect on B: Japanese bulrush (grade 0-5) [9]: 0 (Herbicidal rate of 5% or less (almost no effect)) | Herbicidal effect on C: oval-leafed pondweed (grade 0-5) [10]: 0 (Herbicidal rate of 5% or less (almost no effect)) | herbicidal effect on L: windgrass (criteria 0-5) [11]: 5 (Herbicidal rate of 90% or more (almost completely withered)) | herbicidal effect on K: Italian ryegrass (criteria 0-5) [12]: 4 (Herbicidal rate of 70% or more and less than 90%) | R: persian speedwell, herbicidal effect rating [13]: 5 (Herbicidal rate of 90% or more (almost completely withered)) | H: barnyard grass, herbicidal effect rating [14]: 4 (Herbicidal rate of 70% or more and less than 90%) | herbicidal effect on P: chickweed (criteria 0-5) [15]: 5 (Herbicidal rate of 90% or more (almost completely withered)) | herbicidal effect on G: green foxtail (criteria 0-5) [16]: 5 (Herbicidal rate of 90% or more (almost completely withered)) | herbicidal effect on F: southern crabgrass (criteria 0-5) [17]: 5 (Herbicidal rate of 90% or more (almost completely withered)) | herbicidal effect on J: blackgrass (criteria 0-5) [18]: 3 (Herbicidal rate of 40% or more and less than 70%) | K: Italian ryegrass, herbicidal effect rating [19]: 4 (Herbicidal rate of 70% or more and less than 90%) | F: southern crabgrass, herbicidal effect rating [20]: 4 (Herbicidal rate of 70% or more and less than 90%) | M: velvetleaf, herbicidal effect rating [21]: 2 (Herbicidal rate of 20% or more and less than 40%) | O: lambsquarters, herbicidal effect rating [22]: 1 (Herbicidal rate of 5% or more and less than 20%) | L: windgrass, herbicidal effect rating [23]: 0 (Herbicidal rate of 5% or less (almost no effect)) | N: redroot pigweed, herbicidal effect rating [24]: 5 (Herbicidal rate of 90% or more (almost completely withered)) | herbicidal effect on E: rice flat sedge [25]: 5 (Herbicidal rate of 90% or more (almost completely withered)) | herbicidal effect on H: barnyard grass (criteria 0-5) [26]: 4 (Herbicidal rate of 70% or more and less than 90%) | herbicidal effect on O: lambsquarters (criteria 0-5) [27]: 4 (Herbicidal rate of 70% or more and less than 90%) | Herbicidal effect on A: late watergrass (grade 0-5) [28]: 3 (Herbicidal rate of 40% or more and less than 70%) | herbicidal effect on M: velvetleaf (criteria 0-5) [29]: 5 (Herbicidal rate of 90% or more (almost completely withered)) | herbicidal effect on N: redroot pigweed (criteria 0-5) [30]: 5 (Herbicidal rate of 90% or more (almost completely withered))

From patent US20230085307A1, “PYRIDAZINONE COMPOUND AND HERBICIDE” (NISSAN CHEMICAL CORPORATION, priority 2019, published 2023)
